Assay results taken from article PMC10082216 (Nature Communications, 2023).
Structures can show the parent of a compound that is named as a salt. Where two headings read alike, the source gives them in different places.

How the values were obtained:
[1] = system: mature stage V gametocytes (NF54 strain); test: microbe, parasite or virus in culture; assay type: cell-based, Plasmodium falciparum; details: read-out: Stiffening IC50 (retention)
Experimental: (§1) Screening was conducted as previously described. Briefly, mature stage V gametocytes (NF54 strain) were cultured in vitro, then exposed to the explored compounds and filtered thereafter through layers of microspheres (microsphiltration)[25],[28]. Stiffening activity was determined by comparing gametocytemia up and downstream from the microsphere layers after filtration of drug-exposed gametocytes in 384-well plates using a vacuum manifold. Gametocytemia was assessed using DNA (Sybr Green) and erythrocyte membrane (CellMask) staining. Killing effect was assessed by MitoTracker staining. We screened two small libraries, specifically the Pathogen Box from the Medicine for Malaria Venture and the Kinase Inhibitors Box from GSK (400 and 350 compounds, respectively, Fig. 1A, B), and furthermore the larger ReFrame repurposing library (12,805 compounds, Fig. 1C).
(§2) The Pathogen Box library (400 compounds, provided by MMV-Medicine for Malaria Ventures, Geneva, Switzerland), the Kinase Inhibitors Box library (350 compounds, provided by GSK-Glaxo SmithKline DDW Unit, Tres Cantos, Spain), and the ReFrame library (12,805 compounds provided by the California Institute for Biomedical Research-Calibr, La Jolla, CA, USA) were used according to the providers’ instructions. DMSO-solubilized compounds (10 mM stock concentration) were loaded in 384-well plates (Seahorse, cat. no. 201035−100). Two columns were left empty for the controls. For each compound, 5 nL were pre-spotted in a single well to reach a final concentration of 1.11 μM. The final volume for each well was 45 μl. Controls were prepared as follows: 22.5 nL of DMSO were loaded in 16 wells as negative controls (0.05% final concentration); 22.5 nL of NITD609 (provided by MMV, Geneva, Switzerland) 1 mM were loaded in 8 wells (0.5 μM final concentration), 17 nL of Calyculin A (Sigma, cat. no. C5552) […] were loaded in 6 wells (75 nM final concentration) and 225 nL of Gentian Violet (MolPort, cat. no. 002-133-551) 10 mM were loaded in the remaining 2 wells (50 μM final concentration). Plates were prepared in triplicate for the Pathogen Box and sextuplicate for the Kinase Inhibitors Box.
(§3) Plasmodium falciparum NF54 strain parasites (used for screening campaign) were cultured at 4% hematocrit in RBCs from informed blood donors (blood group A) as previously described. Parasites were taken from the -80 °C freezer, then rapidly melt for 1 minute in a 37 °C water bath. A saline solution was gently added to avoid the lysis. Firstly, NaCl dissolved at 12% in distilled water (1/5 of the volume measured in the cryovial) and then NaCl dissolved at 1.6% (9 times the cryovial’s volume). After that, fresh RBCs were added to allow parasites re-growth. Infected RBCs were kept in RPMI medium (Sigma-Aldrich, cat. no. R4130), supplemented with 10% of decomplemented human serum, hypoxanthine 50 mg/l (Sigma-Aldrich, cat. no. H9636). Biobank of Castilla y Leon and Centro de Transfusiones de Madrid as providers of human red blood cell concentrates. The production of gametocytes was induced from a 0.5% ring-stage parasitemia (day 0). Medium was changed daily to induce gametocytes differentiation, as previously described. At day 17, gametocytes were concentrated using a density gradient medium (NycoPrep 1.077, Progen cat. no. 1114550)[27]. Parasitemia was adjusted by FACS (SYBR-Green and MitoTracker double staining, 3–5% targeted). Hematocrit was adjusted to 0.5% by adding fresh RBCs and controlled by manual counting in a Neubauer chamber (Celeromics, cat. no. 717810). Finally, the gametocyte suspension was poured (45 μL/well) into the compound-containing 384-well microplate, then incubated 24 hours both for the screening campaign and the dose-response analysis. Both asexual and sexual stages were cultivated in RPMI 1640 supplemented with 25 mM HEPES, 50 mg/L hypoxanthine, 50 μg/mL gentami-cin, 10% pooled heat-inactivated human serum (A^+).

[2] = system: mature stage V gametocytes (NF54 strain); test: High-throughput screening: killing effect by MitoTracker staining, primary screening at 1.11 µM and dose-response analysis; assay type: cell-based, Plasmodium falciparum; details: read-out: Killing IC50
Experimental: as §1, §2, §3

HEK293T = details: cited from earlier work
HepG2 = details: cited from earlier work
P.falciparum Dd2 = system: P.falciparum Dd2; set-up: method as in previously published reports (Table S1 legend); details: 72 h; results in previous assays; ref previously published reports (Table S1 legend); read-out: 72-h Dd2-SybrGreen PBFS assay IC50; cited from earlier work
[3] = Hit scoring on safety in human subjects and pharmacokinetics; details: for Score (PK): peak plasma concentration vs IC50
From the text: Hits from the ReFrame library were further selected based on safety, preferably oral administration (high score if oral), and potential availability for widespread use.

[4] = stage V gametocytes NF54, 24 h, dose-response analysis, N/A = not active in dose-response analysis
[5] = read-out: Cellular cytotoxicity assay IC50, HEK293T, 72 h, first value of cell, ref previously published reports (Table S1 legend)
[6] = read-out: Cellular cytotoxicity assay IC50, HepG2, 72 h, second value of cell, ref previously published reports (Table S1 legend)
[7] = Plasmodium falciparum, NF54, 24 h
[8] = Plasmodium falciparum, NF54, 24 h, stage V gametocytes NF54, 24 h, dose-response analysis, N/A = not active in dose-response analysis
[9] = Plasmodium falciparum, stage V gametocytes NF54, 24 h, dose-response analysis, N/A = not active in dose-response analysis

Row | Compound | IC50 (HEK293T; [5]) [nM] | IC50 (HepG2; [6]) [nM] | IC50 [1, 7] [nM] | IC50 (P.falciparum Dd2) [nM] | Score (PK) [3] | IC50 (HEK293T) [nM] | IC50 (HepG2) [nM] | other results
1 | CC(=O)[O][Hg][c]1cc(C(C)(C)CC(C)(C)C)ccc1O [Acetomeroctol] | 462 | 1920 |  |  |  |  |  | IC50 [1, 4]: 5000 nM; IC50 [2, 4]: 7200 nM
2 | CCCCC(CC)CNC(=N)NC(=N)NCCCCCCNC(=N)NC(=N)NCC(CC)CCCC (centres unmarked) [Alexidine dihydrochloride] | 3330 | 3060 | 550 | 32 |  |  |  | IC50 [2, 8]: 41000 nM
3 | CO[C@H]1/C=C\C=C(/C)C(=O)NC2=CC(=O)C(NCCN(C)C)=C(C[C@@H](C)C[C@H](OC)[C@H](O)[C@@H](C)/C=C(\C)[C@@H]1OC(N)=O)C2=O [Alvespimycin hydrochloride] | 98 | 14 | 960 | 272 |  |  |  | IC50 [2, 9]: 1750 nM
4 | Cc1nc2c(s1)C(O)=C/C(=N\CCN(C)C)C2=O [BN-82685] | 2920 | 1890 | 4600 | 1740 |  |  |  | IC50 [2, 8]: 2800 nM
5 | C(=N\NC1=NCCN1)/c1c2ccccc2c(/C=N/NC2=NCCN2)c2ccccc12 [Bisantrene HCl] | 54 | 62 |  | 65 |  |  |  | IC50 [2, 4]: 2200 nM
6 | O=C(NO)c1cnc(N2C[C@@H]3[C@H](C2)[C@H]3NCc2ccc3cc(F)ccc3n2)nc1 [CHR-3996] |  |  | 7230 | 15 | 0 | 728 | 127 | IC50 [2, 8]: 70 nM; Score (safety) [3]: 0
7 | CN(C)CCOc1ccc2[nH]c(C(=O)NCC#Cc3ccc(C(=O)NO)cc3)cc2c1 [CRA-026440] |  |  |  | 63 |  | 81 | 11 | IC50 [1, 4]: 550 nM; IC50 [2, 4]: 16000 nM
8 | CC[C@H]1CN2CCc3cc(OC)c(OC)cc3[C@@H]2C[C@@H]1C[C@H]1NCCc2cc(O)c(OC)cc21 [Cephaeline] | 14 | 62 | 3800 | 28 |  |  |  | IC50 [2, 7]: 1000 nM
9 | C[C@@H]1O[C@@H](O[C@H]2CC[C@]3(C=O)[C@H]4CC[C@]5(C)[C@@H](C6=CC(=O)OC6)CC[C@]5(O)[C@@H]4CC[C@]3(O)C2)[C@H](O)[C@H](O)[C@H]1O [Convallatoxin] | 26 | 33 | 50 | 16 |  |  |  | 
10 | CO[C@H]1C[C@H](O[C@H]2CC[C@]3(C=O)[C@H]4CC[C@]5(C)[C@@H](C6=CC(=O)OC6)CC[C@]5(O)[C@@H]4CC[C@]3(O)C2)O[C@H](C)[C@H]1O [Cymarine] | 71 | 102 | 330 | 9950 | 0 |  |  | Score (safety) ([3]; human): 0
11 | O=C(NCCN1CCCC1)c1cc(-c2ccc(CN3CCOCC3)cc2)nc2ccc(F)cc12 [DDD498] |  |  | 2600 | 4 | 0 |  |  | IC50 [2, 8]: 1700 nM; Score (safety) [3]: 0
12 | COc1cccc2c1C(=O)c1c(O)c3c(c(O)c1C2=O)C[C@@](O)(C(C)=O)C[C@@H]3O[C@H]1C[C@H](N)[C@H](O)[C@H](C)O1 [Daunorubicin] |  |  | 12000 |  |  | 39 | 126 | 
13 | CC1CCC(C(C)C)C(OC(=O)C[N+](C)(C)CCCCCCCCCC[N+](C)(C)CC(=O)OC2CC(C)CCC2C(C)C)C1 (centres unmarked) [Decamethoxine] |  |  |  | 61 |  | 3300 | 4300 | IC50 [1, 4]: 1000 nM; IC50 [2, 4]: 8100 nM
14 | C[C@H]1O[C@@H](O[C@H]2[C@@H](O)C[C@H](O[C@H]3[C@@H](O)C[C@H](O[C@H]4CC[C@@]5(C)[C@H](CC[C@@H]6[C@@H]5CC[C@]5(C)[C@@H](C7=CC(=O)OC7)CC[C@]65O)C4)O[C@@H]3C)O[C@@H]2C)C[C@H](O)[C@@H]1O [Digitoxin] | 8 | 11 | 10600 |  | 0 |  |  | Score (safety) ([3]; human): 3
15 | O=C(CC1NCCCC1O)Cn1cnc2cc(Br)c(Cl)cc2c1=O (centres unmarked) [Halofuginone] |  |  | 4300 | 1 |  | 89 | 36 | IC50 [2, 9]: 240 nM; Score (safety) ([3]; human): 3
16 | COC(=O)C[C@](O)(CCCC(C)(C)O)C(=O)O[C@@H]1C(OC)=C[C@]23CCCN2CCc2cc4c(cc2[C@H]13)OCO4 [Homoharringtonine] |  |  | 2300 | 7 |  | 32 | 122 | IC50 [2, 8]: 1730 nM
17 | CC(=O)O[C@H]1C[C@H](O[C@H]2[C@@H](O)C[C@H](O[C@H]3[C@@H](O)C[C@H](OC4CC[C@@]5(C)[C@H](CC[C@@H]6[C@@H]5CC[C@]5(C)[C@@H](C7=CC(=O)OC7)CC[C@]65O)C4)O[C@@H]3C)O[C@@H]2C)O[C@H](C)[C@H]1O[C@@H]1O[C@H](CO)[C@@H](O)[C@H](O)[C@H]1O (some centres unmarked) [Lanatoside A] | 171 | 136 | 860 | 9950 | 0 |  |  | Score (safety) ([3]; human): 0
18 | COc1cccc2c1ccc1nc3cccc(C(=O)N[C@H](C)CN(C)C)c3nc12 [MLN 576] |  |  |  | 2040 | 0 | 218 | 413 | IC50 [1, 4]: 5020 nM; Score (safety) [3]: 0
19 | CO[C@H]1[C@H](O)[C@H](O[C@H]2CC[C@@]3(C=O)[C@H](CC[C@@H]4[C@@H]3CC[C@]3(C)[C@@H](C5=CC(=O)OC5)CC[C@]43O)C2)O[C@@H](C)[C@@H]1O [Peruvoside] | 20 | 32 | 2680 | 9950 |  |  |  | 
20 | Cn1cc(CNCC2CCN(c3ncc(C(=O)NO)cn3)CC2)c2ccccc21 [Quisinostat] |  |  | 3500 |  | 0 |  |  | IC50 [2, 8]: 5200 nM; Score (safety) [3]: 0
21 | CC1=C(C)C(=O)C(CCCCCCCCCC[P+](c2ccccc2)(c2ccccc2)c2ccccc2)=CC1=O [SkQ1] |  |  |  | 1050 |  | 778 | 3130 | IC50 [1, 4]: 1900 nM; IC50 [2, 4]: 3850 nM
22 | CC[n+]1c(/C=C/c2ccc(N3CCCC3)cc2)cccc1/C=C/c1ccc(N2CCCC2)cc1.[I-] [Stilbazium iodide] |  |  |  |  | 0 |  |  | IC50 [1, 4]: 1570 nM; IC50 [2, 4]: 8740 nM; Score (safety) [3]: 0
23 | COC(=O)C1=C(C)NC(C)=C(C(=O)OC)C1c1cc([N+](=O)[O-])ccc1OCCCCNCC(O)COc1ccccc1 (centres unmarked) [YM 161514] |  |  |  | 2260 | 0 |  | 3970 | IC50 [1, 4]: 3600 nM; IC50 [2, 4]: 5550 nM; Score (safety) [3]: 0
24 | Tyrothricin |  |  |  |  |  | 1800 | 1900 | 
